# EP4635958A1, “PYRIMIDINE-CONTAINING POLYCYCLIC DERIVATIVE INHIBITOR, AND PREPARATION METHOD THEREFOR AND USE THEREOF” (Shanghai Hansoh Biomedical Co., Ltd., priority 2022, dated 2024)
# pIC50: −log10 of the molar value.
# Key:
# [1] = test system: AsPC-1; test: Inhibition of proliferation of KRAS G12D mutant tumor cell line AsPC-1 (CellTiter-Glo); type: cell-based; settings: Homo sapiens, ASPC1, about 72 h
# Description: 1. Experimental objective: The inhibition activity of the example compounds on the proliferation of 5 KRAS G12D mutant cell lines SNU-1, HPAF-II, Panc0403, AsPC-1 and GP2D was determined. 2. Experimental instruments: • 2.1 Instruments: Microplate reader (BioTek Synergy H1); Pipette (Eppendorf & Rainin). • 2.2 Reagents: HPAF-II, PANC0403, AsPC-1 and GP2D were purchased from COBIOER BIOSCIENCES CO., LTD; SNU-1 was purchased from the cell bank of Chinese Academy of Sciences, Cell Titer-Glo was purchased from Promega, with a catalog number of G7573; RPMI 1640 was purchased from Gibco, with a catalog number of 22400089; DMEM was purchased from Gibco, with a catalog number of 11995065; FBS was purchased from Gibco, with a catalog number of 10091148; PBS was purchased from Gibco, with a catalog number of 10010023; trypsin was purchased from Gibco, with a catalog number of 25200056; cell culture plates were purchased from Corning Company, with a catalog number of 3610. 3. Experimental method: When SNU-1, HPAF-II, Panc0403, AsPC-1 or GP2D cells were cultured to the appropriate confluence, and the SNU-1, HPAF-II, Panc0403, AsPC-1 or GP2D cells were collected. The cells were adjusted to the appropriate cell density using complete culture medium, the cell suspension was plated onto a 96-well plate at 90 µL per well, and the plate was placed in the incubator at 37°C and 5% CO2 for adherent culture overnight. Solutions of the compound with different concentrations were formulated using DMSO and culture medium. A vehicle control was set up. The solutions of the compound were added to the 96-well plate at 10 µL per well, and the plate was placed in the incubator at 37°C and 5% CO2 for further culture for about 72 h. Then, CellTiter-Glo solution was added, and the obtained mixture was shaken and mixed evenly, incubated in the dark for 10 min, and read with a BioTek Synergy H1 microplate reader. 4. Experimental data processing method: The luminescence signal value was used to calculate the inhibition rate. Graphpad Prism software was used to fit the concentration and inhibition rate to a nonlinear regression curve, so as to obtain the IC50 value. 5. Experimental results: Table 2: Determination of the inhibition activity of the compounds on the proliferation of KRAS G12D mutant tumor cell line GP2D
# [2] = test system: human colorectal cancer cell line (GP2D); test: Anti-tumor efficacy in mouse transplanted tumor model of human colorectal cancer cell line (GP2D); type: in vivo, mice (BALB/c nude); settings: 100mpk, PO*BID
# Text: 8-10 week old female conventional immunodeficient mice (BALB/c nude) with a body weight of 18 g-22 g were used as experimental animals, and a transplanted tumor model of human colorectal cancer cell line (GP2D) was used to conduct in vivo efficacy experiments to test the anti-tumor results of the example compounds after gavage administration.
# (§1) The example compounds of the present invention, made in house.
# A certain amount of the example compound was weighed, and an appropriate amount of 10% vehicle (Solutol HS15) was added. The mixture was stirred on a magnetic stirrer for 0.5 h to formulate a homogeneous suspension at the desired concentration.
# The human colorectal cancer cell line (GP2D) was derived from COBIOER BIOSCIENCES CO., LTD, cultured on DMEM medium (Gibco, 11995-065) supplemented with 10% fetal calf serum (Gibco, 10091-148) and 1% penicillin/streptomycin (Gibco, 15140-122) and observed under a microscope (Thermo Fisher, 311). The cells were routinely passaged when the cells reached 80%-90% confluence in the culture flask. The passaged cells were cultured in a 37°C, 5% CO2 incubator (Thermo Fisher, 311).
# Under aseptic conditions, human colorectal cancer cells (GP2D) in the logarithmic growth phase were harvested using 0.25% trypsin-EDTA (Gibco, 25200-056), washed and resuspended with phosphate buffer. The cell suspension was mixed with Matrigel (Corning, 356234) at a 1 : 1 ratio (v/v) and implanted subcutaneously into the right anterior dorsal region of immunodeficient mice (BALB/c nude). Each mouse was inoculated with 5*10^6 cells in a volume of 100 microliters (µL). After inoculation, when the tumor volume reached 100-200 mm^3, the mice would be evenly randomized into 5 groups based on the tumor size, with 5 mice per group, for in vivo efficacy experiments. The positive control group was the compound MRTX-1133, and the negative control group was the vehicle group.
# Mode of administration: The positive control group was intraperitoneally injected, and the example compounds were administered orally.
# Twice a week, the long and short diameters of the tumor were measured using a vernier caliper, and the tumor volume (mm^3) was calculated using the formula: V = 0.5*D*d*d, where D and d are the long and short diameters of the tumor, respectively. The anti-tumor efficacy was determined by dividing the average increase in tumor volume of compound-treated animals by the average increase in tumor volume of untreated animals. The calculation formula for tumor inhibition rate was: When there is no tumor regression, TGI(%) = 100-[(Vt-V0) administration group/(Vt-V0) vehicle control group]*100%. When tumor regression occurs, TGI(%) = [1-(V1-V0) administration group/V0 vehicle control group]* 100%. All animals were euthanized after the experiment.
# [3] = test system: GP2D; test: Inhibition of proliferation of KRAS G12D mutant tumor cell line GP2D (CellTiter-Glo); settings: Homo sapiens, GP2d, 72 h, read-out: GP2D IC50
# [4] = Pharmacokinetic determination in mice (IV and PO, plasma, LCMS/MS); type: in vivo, Balb/c mice; settings: mouse, in vivo, PO, 30 mg/kg, male Balb/c mice, overnight fasting, plasma
# Text: • 1. Study objective: Balb/c mice were used as test animals to study the pharmacokinetic behavior of the compounds in mice (plasma) after oral administration. • 2. Test scheme • 2.1 Test drugs: The example compounds of the present invention, made in house; • 2.2 Test animals: Balb/c mice, male, purchased from Shanghai Jiesijie Experimental Animal Co., Ltd., animal production license number (SCXK (Shanghai) 2013-0006 N0.311620400001794). • 2.3 Drug formulation: Formulation of a drug for oral administration: 10% Captisol in 50 mM citrate buffer pH 5.0.
# (§2) Formulation of 50 mM citric acid: 4.8 g of citric acid was weighed into a 1000 ml glass bottle, ultrapure water was added to 300 ml, and the mixture was magnetically stirred until completely dissolved, additional ultrapure water was then added to 500 ml to formulate 50 mM citric acid.
# (§3) Formulation of a solution containing 50 mM citric acid (10% Captisol, PH = 5): 50 g of Captisol powder was weighed and added to a 1000 ml glass bottle, 300 ml of 50 mM citric acid was added, and the mixture was magnetically stirred until completely dissolved, then additional citric acid was added to 500 ml, and the PH was adjusted to 5 using 10 M NaOH.
# The example compounds were weighed and added to a 4 mL glass bottle separately, 2.4 mL of the solution was added and the mixture was subjected to ultrasound treatment for 10 min to obtain a colorless clear solution with a concentration of 3 mg/mL.
# (§4) Formulation of a drug for intravenous administration: 5%DMSO+10%Solutol HS15+85%PBS.
# (§5) The example compounds were weighed, and 5% DMSO was added according to the total administration volume; the mixture was vortexed and sonicated for 2 min to ensure complete dissolution; then, 10% Solutol HS15 was added, and the mixture was vortexed and sonicated for 2 min to achieve complete dissolution; finally, 85% PBS was added, and the mixture was vortexed and sonicated for 5 min; the obtained mixture was filtered through a 0.22 um membrane to obtain a colorless, transparent, and clear solution with a concentration of 0.2 mg/mL.
# 3 Balb/c mice, male; After overnight fasting, the animals were administered orally (PO) at a dose of 30 mg/kg with an administration volume of 10 mL/kg.
# 3 Balb/C mice, male; After overnight fasting, the animals were administered intravenously (IV) at a dose of 1 mg/kg with an administration volume of 5 mL/kg.
# 0.04 mL of blood was collected from the orbit before administration and at 0.25 h, 0.5 h, 1 h, 2 h, 4 h, 6 h, 8 h, and 24 h after administration and placed in an EDTA-2K test tube, and the test tube was centrifuged at 6000 rpm for 6 min at 4°C to separate the plasma, which was stored at -20°C; the animals were fed 4 h after administration.
# The final determination results obtained by applying the LCMS/MS method are shown in the table below: Table 6: Pharmacokinetic parameters of the compounds administered intravenously in mice
# [5] = Pharmacokinetic determination in rats (IV and PO, plasma, LCMS/MS); type: in vivo, SD rats; settings: rat, in vivo, PO, 30 mg/kg, male SD rats, overnight fasting, plasma
# Description: SD rats were used as test animals to study the pharmacokinetic behavior of the example compounds in rats (plasma) after oral administration.
# as §1
# 3 SD rats per group, male. Shanghai Jiesijie Experimental Animal Co., Ltd., animal production license number (SCXK (Shanghai) 2013-0006 N0.311620400001794).
# Formulation of a drug for oral administration: 10% Captisol in 50 mM citrate buffer pH 5.0.
# as §2, §3
# The example compounds were weighed and dissolved in the solution and the mixture was shaken well and subjected to ultrasound treatment for 15 min to obtain a colorless clear solution with a concentration of 3 mg/mL.
# as §4, §5
# 3 SD rats per group, male; After overnight fasting, the animals were administered orally (PO) at a dose of 30 mg/kg with an administration volume of 10 mL/kg.
# 3 SD rats per group, male; After overnight fasting, the animals were administered intravenously (IV) at a dose of 1 mg/kg with an administration volume of 5 mL/kg.
# 0.2 mL of blood was collected from the jugular vein before administration and at 0.25 h, 0.5 h, 1.0 h, 2.0 h, 4.0 h, 6.0 h, 8.0 h, and 24.0 h after administration and placed in an EDTA-2K test tube, and the test tube was centrifuged at 6000 rpm for 6 min at 4°C to separate the plasma, which was stored at -20°C. the animals were fed 4 h after administration.
# The final determination results obtained by applying the LCMS/MS method are shown in the table below: Table 8: Pharmacokinetic parameters of the compounds administered intravenously in rats
Structure (SMILES),pIC50 [1],"Tumor volume (mm^3, Mean ± SD) Day 0 [2] [mm^3]",TGI(%) Day 14 [2] [%],"Tumor volume (mm^3, Mean ± SD) Day 14 [2] [mm^3]",ΔT/ΔC(%) Day 14 [2] [%],pIC50 [3],AUC(0-inf) ([4]; read-out: AUC0-∞) [ng·h/mL],Cmax ([4]; read-out: Cmax) [ng/mL],half-life ([4]; read-out: T1/2 (converted)) [h],Tmax ([4]; read-out: Tmax) [h],AUC(0-inf) ([5]; read-out: AUCo-∞) [ng·h/mL],Cmax ([5]; read-out: Cmax) [ng/mL],Tmax ([5]; read-out: Tmax) [h]
C#Cc1c(F)ccc2cc(O)cc(-c3nc4c5c(nc(OCC6(CN7CCC(=CF)C7)CC6)nc5c3F)N3C[C@H]5CC[C@H](N5)[C@H]3[C@H](C)O4)c12 [Example 131],8.30,167,127.11,122,15.42,9.77,559,151,18.3,1,,,
C#Cc1c(F)ccc2cc(O)cc(-c3nc4c5c(nc(OCC6(CN7CCC(=CF)CC7C)CC6)nc5c3F)N3CC5CCC(N5)C3C(C)O4)c12 (stereo not shown) [Example 285],8.32,167,148.04,87,10.99,9.80,,,,,598,73,2
